Assay results: patent US9029391B2 (priority 2011, dated 2015)
Where a name gives a salt, the structure may show the parent alone. Read-outs that look alike come from different tables or passages of the source.

Test system: HIV
Experiment: MT4 Assay (anti-HIV activity)
Format: cell-based
Method: Antiviral HIV activity and cytotoxicity values for compounds of the invention from Table 1 were measured in parallel in the HTLV-1 transformed cell line MT-4 based on the method previously described (Hazen et al., 2007, In vitro antiviral activity of the novel, tyrosyl-based human immunodeficiency virus (HIV) type 1 protease inhibitor brecanavir (GW640385) in combination with other antiretrovirals and against a panel of protease inhibitor-resistant HIV (Hazen et al., “In vitro antiviral activity of the novel, tyrosyl-based human immunodeficiency virus (HIV) type 1 protease inhibitor brecanavir (GW640385) in combination with other antiretrovirals and against a panel of protease inhibitor-resistant HIV”, Antimicrob. Agents Chemother. 2007, 51: 3147-3154; and Pauwels et al., “Sensitive and rapid assay on MT-4 cells for the detection of antiviral compounds against the AIDS virus”, J. of Virological Methods 1987, 16: 171-185).
Luciferase activity was measured 96 hours later by adding a cell titer glo (Promega, Madison, Wis.). Percent inhibition of cell protection data was plotted relative to no compound control. Under the same condition, cytotoxicity of the compounds was determined using cell titer glo (Promega, Madison, Wis.). IC50s were determined from a 10 point dose response curve using 3-4-fold serial dilution for each compound, which spans a concentration range >1000 fold.

[1] = Human immunodeficiency virus 1, 96 h, read-out: HIV MT4 Assay IC50, HTLV-1 transformed cell line MT-4, cell titer glo, 10 point dose response curve

Structure (SMILES) | IC50 (read-out: HIV MT4 Assay IC50, HTLV-1 transformed cell line MT-4, 96 hours, cell titer glo, 10 point dose response curve) [nM] | IC50 [1] [nM]
Cc1c(-c2c([C@H](OC(C)(C)C)C(=O)O)n(C)c(=O)c3ccccc23)cc(F)c2c1CCCO2 (atropisomer, axis not shown; (M)) [Example 159, (2S)(M)-2-(tert-butoxy)-2-(4-(8-fluoro-5-methylchroman-6-yl)-2-methyl-1-oxo-1,2-dihydroisoquinolin-3-yl)acetic acid] | 30 | –
Cc1c(-c2c([C@H](OC3(C)CCC3)C(=O)O)n(C)c(=O)c3ccccc23)cc(F)c2c1CCCO2 (atropisomer, axis not shown; (M)) [Example 163, (2S)(M)-2-[4-(8-fluoro-5-methyl-3,4-dihydro-2H-1-benzopyran-6-yl)-2-methyl-1-oxo-1,2-dihydroisoquinolin-3-yl]-2-(1-methylcyclobutoxy)acetic acid] | – | 110
Cc1c(-c2c([C@H](OC(C)(C)C)C(=O)O)n(C)c(=O)c3cc(Br)ccc23)cc(F)c2c1CCCO2 (atropisomer, axis not shown; (M)) [Example 164, (2S)(M)-[7-bromo-4-(8-fluoro-5-methyl-3,4-dihydro-2H-chromen-6-yl)-2-methyl-1-oxo-1,2-dihydro-3-isoquinolinyl][(1,1-dimethylethyl)oxy]ethanoic acid] | – | 460
Cc1c(-c2c([C@H](OC(C)(C)C)C(=O)O)n(C)c(=O)c3cc(Nc4ccc(Cl)c(F)c4)ccc23)cc(F)c2c1CCCO2 (atropisomer, axis not shown; (M)) [Example 165, (2S)(M)-[7-[(4-chloro-3-fluorophenyl)amino]-4-(8-fluoro-5-methyl-3,4-dihydro-2H-chromen-6-yl)-2-methyl-1-oxo-1,2-dihydro-3-isoquinolinyl][(1,1-dimethylethyl)oxy]ethanoic acid] | – | 100
Cc1c(-c2c([C@H](OC(C)(C)C)C(=O)O)n(C)c(=O)c3cc(N4CCCCC4)ccc23)cc(F)c2c1CCCO2 (atropisomer, axis not shown; (M)) [Example 166, (2S)(M)-[(1,1-dimethylethyl)oxy][4-(8-fluoro-5-methyl-3,4-dihydro-2H-chromen-6-yl)-2-methyl-1-oxo-7-(1-piperidinyl)-1,2-dihydro-3-isoquinolinyl]ethanoic acid] | – | 20
Cc1c(-c2c([C@H](OC(C)(C)C)C(=O)O)n(C)c(=O)c3cc(N4CCS(=O)(=O)CC4)ccc23)cc(F)c2c1CCCO2 (atropisomer, axis not shown; (M)) [Example 167, (2S)(M)-[(1,1-dimethylethyl)oxy][7-(1,1-dioxido-4-thiomorpholinyl)-4-(8-fluoro-5-methyl-3,4-dihydro-2H-chromen-6-yl)-2-methyl-1-oxo-1,2-dihydro-3-isoquinolinyl]ethanoic acid] | – | 3710
Cc1c(-c2c([C@H](OC(C)(C)C)C(=O)O)n(C)c(=O)c3cc(N4CCOCC4)ccc23)cc(F)c2c1CCCO2 (atropisomer, axis not shown; (M)) [Example 168, (S)(M)-2-(tert-butoxy)-2-(4-(8-fluoro-5-methylchroman-6-yl)-2-methyl-7-morpholino-1-oxo-1,2-dihydroisoquinolin-3-yl)acetic acid] | – | 260
Cc1c(-c2c([C@H](OC(C)(C)C)C(=O)O)n(C)c(=O)c3cc(C(=O)N4CCOCC4)ccc23)cc(F)c2c1CCCO2 (atropisomer, axis not shown; (M)) [Example 169, (S)(M)-2-(tert-butoxy)-2-(4-(8-fluoro-5-methylchroman-6-yl)-2-methyl-7-(morpholine-4-carbonyl)-1-oxo-1,2-dihydroisoquinolin-3-yl)acetic acid] | – | 22500
Cc1cccc(-c2ccc3c(-c4cc(F)c5c(c4C)CCCO5)c([C@H](OC(C)(C)C)C(=O)O)n(C)c(=O)c3c2)n1 (atropisomer, axis not shown; (M)) [Example 173, (2S)(M)-[(1,1-dimethylethyl)oxy][4-(8-fluoro-5-methyl-3,4-dihydro-2H-chromen-6-yl)-2-methyl-7-(6-methyl-2-pyridinyl)-1-oxo-1,2-dihydro-3-isoquinolinyl]ethanoic acid] | – | 120
Cc1c(-c2c([C@H](OC(C)(C)C)C(=O)O)n(C)c(=O)c3cc(CC(C)C)ccc23)cc(F)c2c1CCCO2 (atropisomer, axis not shown; (M)) [Example 174, (2S)(M)-[(1,1-dimethylethyl)oxy][4-(8-fluoro-5-methyl-3,4-dihydro-2H-chromen-6-yl)-2-methyl-7-(2-methylpropyl)-1-oxo-1,2-dihydro-3-isoquinolinyl]ethanoic acid] | – | 50
Cc1c(-c2c([C@H](OC(C)(C)C)C(=O)O)n(C)c(=O)c3cc(Cc4ccccc4)ccc23)cc(F)c2c1CCCO2 (atropisomer, axis not shown; (M)) [Example 175, (2S)(M)-[(1,1-dimethylethyl)oxy][4-(8-fluoro-5-methyl-3,4-dihydro-2H-chromen-6-yl)-2-methyl-1-oxo-7-(phenylmethyl)-1,2-dihydro-3-isoquinolinyl]ethanoic acid] | – | 70
Cc1c(-c2c([C@H](OC(C)(C)C)C(=O)O)n(C)c(=O)c3cc(CCc4ccccc4)ccc23)cc(F)c2c1CCCO2 (atropisomer, axis not shown; (M)) [Example 176, (2S)(M)-[(1,1-dimethylethyl)oxy][4-(8-fluoro-5-methyl-3,4-dihydro-2H-chromen-6-yl)-2-methyl-1-oxo-7-(2-phenylethyl)-1,2-dihydro-3-isoquinolinyl]ethanoic acid] | – | 50
Cc1c(-c2c([C@H](OC(C)(C)C)C(=O)O)n(C)c(=O)c3cc(CN4CCOCC4)ccc23)cc(F)c2c1CCCO2 (atropisomer, axis not shown; (M)) [Example 189, (S)(M)-2-(tert-butoxy)-2-(4-(8-fluoro-5-methylchroman-6-yl)-2-methyl-7-(morpholinomethyl)-1-oxo-1,2-dihydroisoquinolin-3-yl)acetic acid] | – | 40
Cc1c(-c2c([C@H](OC(C)(C)C)C(=O)O)n(C)c(=O)c3cc(CN4CCCCC4)ccc23)cc(F)c2c1CCCO2 (atropisomer, axis not shown; (M)) [Example 190, (S)(M)-2-(tert-butoxy)-2-(4-(8-fluoro-5-methylchroman-6-yl)-2-methyl-1-oxo-7-(piperidin-1-ylmethyl)-1,2-dihydroisoquinolin-3-yl)acetic acid, Trifluoroacetic acid salt] | – | 320
Cc1c(-c2c([C@H](OC(C)(C)C)C(=O)O)n(C)c(=O)c3cc(-c4ccoc4)ccc23)cc(F)c2c1CCCO2 (atropisomer, axis not shown; (M)) [Example 194, (2S)(M)-[(1,1-dimethylethyl)oxy][4-(8-fluoro-5-methyl-3,4-dihydro-2H-chromen-6-yl)-7-(3-furanyl)-2-methyl-1-oxo-1,2-dihydro-3-isoquinolinyl]ethanoic acid] | – | 40
Cc1c(-c2c([C@H](OC(C)(C)C)C(=O)O)n(C)c(=O)c3cc(-c4ccnn4C)ccc23)cc(F)c2c1CCCO2 (atropisomer, axis not shown; (M)) [Example 195, (2S)(M)-[(1,1-dimethylethyl)oxy][4-(8-fluoro-5-methyl-3,4-dihydro-2H-chromen-6-yl)-2-methyl-7-(1-methyl-1H-pyrazol-5-yl)-1-oxo-1,2-dihydro-3-isoquinolinyl]ethanoic acid] | – | 140
Cc1n[nH]c(C)c1-c1ccc2c(-c3cc(F)c4c(c3C)CCCO4)c([C@H](OC(C)(C)C)C(=O)O)n(C)c(=O)c2c1 (atropisomer, axis not shown; (M)) [Example 196, (2S)(M)-[(1,1-dimethylethyl)oxy][7-(3,5-dimethyl-1H-pyrazol-4-yl)-4-(8-fluoro-5-methyl-3,4-dihydro-2H-chromen-6-yl)-2-methyl-1-oxo-1,2-dihydro-3-isoquinolinyl]ethanoic acid] | – | 1160
Cc1c(-c2c([C@H](OC(C)(C)C)C(=O)O)n(C)c(=O)c3cc(-c4cn[nH]c4)ccc23)cc(F)c2c1CCCO2 (atropisomer, axis not shown; (M)) [Example 197, (2S)(M)-[(1,1-dimethylethyl)oxy][4-(8-fluoro-5-methyl-3,4-dihydro-2H-chromen-6-yl)-2-methyl-1-oxo-7-(1H-pyrazol-4-yl)-1,2-dihydro-3-isoquinolinyl]ethanoic acid] | – | 1460
COc1ccc(-c2ccc3c(-c4cc(F)c5c(c4C)CCCO5)c([C@H](OC(C)(C)C)C(=O)O)n(C)c(=O)c3c2)cn1 (atropisomer, axis not shown; (M)) [Example 198, (2S)(M)-[(1,1-dimethylethyl)oxy]{4-(8-fluoro-5-methyl-3,4-dihydro-2H-chromen-6-yl)-2-methyl-7-[6-(methyloxy)-3-pyridinyl]-1-oxo-1,2-dihydro-3-isoquinolinyl}ethanoic acid] | – | 40
Cc1c(-c2c([C@H](OC(C)(C)C)C(=O)O)n(C)c(=O)c3cc(-c4ccc(N(C)C)cc4)ccc23)cc(F)c2c1CCCO2 (atropisomer, axis not shown; (M)) [Example 199, (2S)(M)-[7-[4-(dimethylamino)phenyl]-4-(8-fluoro-5-methyl-3,4-dihydro-2H-chromen-6-yl)-2-methyl-1-oxo-1,2-dihydro-3-isoquinolinyl][(1,1-dimethylethyl)oxy]ethanoic acid] | – | 90
